Counter-ions that a name gives are not always drawn.
Columns and labels:
p38 MAP kinase = target: T1, p38 MAP kinase (Homo sapiens, UniProt Q16539); assay: Inhibition of p-38 (MAP) kinase, in vitro assay (transfer of γ-33P from ATP to Myelin Basic Protein); assay type: biochemical; conditions: phosphorylated recombinant p38 MAP kinase, MBP substrate, γ-33P-ATP, 30° C.; read-out: IC50, μM (p-38 inhibitory activity)
T1 construct: made in house; host or cells: E. coli (co-expressed with SEK-1 and MEKK to obtain the phosphorylated form)
T1 sequence (Q16539 whole entry): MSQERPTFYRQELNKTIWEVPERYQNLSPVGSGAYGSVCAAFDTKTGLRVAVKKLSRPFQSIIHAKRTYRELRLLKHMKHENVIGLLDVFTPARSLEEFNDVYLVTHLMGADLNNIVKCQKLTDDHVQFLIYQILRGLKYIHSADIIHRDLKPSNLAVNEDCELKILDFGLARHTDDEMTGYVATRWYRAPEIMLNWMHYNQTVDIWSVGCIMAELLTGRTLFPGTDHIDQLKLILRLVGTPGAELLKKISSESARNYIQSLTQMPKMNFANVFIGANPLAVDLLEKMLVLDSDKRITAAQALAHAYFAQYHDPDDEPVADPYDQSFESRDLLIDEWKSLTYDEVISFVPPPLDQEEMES
Method: The p-38 MAP kinase inhibitory activity of compounds of this invention in vitro was determined by measuring the transfer of the γ-phosphate from γ-^33P-ATP by p-38 kinase to Myelin Basic Protein (MBP), using the a minor modification of the method described in Ahn, N. G.; et al. J. Biol. Chem. Vol. 266(7), 4220-4227, (1991).
The phosphorylated form of the recombinant p38 MAP kinase was expressed with SEK-1 and MEKK in E. Coli and then purified by affinity chromatography using a Nickel column.
The phosphorylated p38 MAP kinase was diluted in kinase buffer (20 mM 3-(N-morpholino)propanesulfonic acid, pH 7.2, 25 mM β-glycerol phosphate, 5 mM ethylene glycol-bis(beta-aminoethyl ether)-N,N,N′,N′-tetraacetic acid, 1 mM sodium vanadate, 1 mM dithiothreitol, 40 mM magnesium chloride). Test compound dissolved in DMSO or only DMSO (control) was added and the samples were incubated for 10 min at 30° C. The kinase reaction was initiated by the addition of a substrate cocktail containing MBP and γ-^33P-ATP. After incubating for an additional 20 min at 30° C., the reaction was terminated by adding 0.75% phosphoric acid. The phosphorylated MBP was then separated from the residual γ-^33P-ATP using a phosphocellulose membrane (Millipore, Bedford, Mass.) and quantitated using a scintillation counter (Packard, Meriden, Conn.).
Compounds of the invention were active in this assay.

CC(C)NC(=O)Oc1cccc(C(=O)c2cnn(-c3ccc(F)cc3)c2N)c1
melting point: 225.2 to 230.1 °C

CCNC(=O)Oc1cccc(C(=O)c2cnn(-c3ccc(F)cc3)c2N)c1
melting point: 201.2 to 202.8 °C

CN1CCN(CCCc2cccc(C(=O)c3cnn(-c4ccc(F)cc4)c3N)c2)CC1 (as salt: HCl) [compound 30, 5-amino-1-(4-fluorophenyl)-4-{3-[3-(4-methylpiperazin-1-yl)propyl]benzoyl}pyrazole]
melting point: 254.5 to 254.9 °C

Nc1c(C(=O)c2cccc(CCCN3CCCCC3)c2)cnn1-c1ccc(F)cc1 (as salt: HCl) [compound 32, 5-amino-1-(4-fluorophenyl)-4-[3-(3-piperidin-1-ylpropyl)benzoyl]pyrazole]
melting point: 227.1 to 277.7 °C

Cc1ccc(-n2ncc(C(=O)c3cccc(-c4cccnc4)c3)c2N)cc1 (as salt: HCl) [compound 65, 5-amino-1-(4-methylphenyl)-4-[3-(pyridin-3-yl)benzoyl]pyrazole]
melting point: 281.3 to 282.8 °C

COc1cccc(-n2ncc(C(=O)c3cccc(-c4cccnc4)c3)c2N)c1 (as salt: HCl) [compound 66, 5-amino-1-(3-methoxyphenyl)-4-[3-(pyridin-3-yl)benzoyl]pyrazole]
melting point: 256.1 to 256.5 °C

Nc1c(C(=O)c2cccc(-c3cccnc3)c2)cnn1-c1ccc(S(N)(=O)=O)cc1 (as salt: HCl) [compound 68, 5-amino-1-(4-sulfamoylphenyl)-4-[3-(pyridin-3-yl)benzoyl]pyrazole]
melting point: > 300 °C

CC(=O)OCC(COc1cccc(C(=O)c2cnn(-c3ccc(F)cc3)c2N)c1)OC(C)=O (stereo in doubt) [compound 165, 5-amino-1-(4-fluorophenyl)-4-[3-{2(S),3-(diacetoxy)propoxy}benzoyl]pyrazole]
melting point: 91.4 to 92.7 °C

COC(=O)OCC(COc1cccc(C(=O)c2cnn(-c3ccc(F)cc3)c2N)c1)OC(=O)OC (stereo in doubt) [compound 168, 5-amino-1-(4-fluorophenyl)-4-[3-{2(S),3-(dimethoxycarbonyloxy)propoxy}benzoyl]pyrazole]
melting point: 62 to 65 °C

CC1(C)OCC(COc2cccc(C(=O)c3cnn(-c4ccc(F)cc4)c3N)c2)O1 (stereo in doubt) [compound 170, 5-amino-1-(4-fluorophenyl)-4-{3-[(2,2-dimethyl-1,3-dioxolan-4(S)-yl)methoxy]benzoyl}pyrazole]
melting point: 78.3 to 80 °C

Nc1c(C(=O)c2cccc(C#CCN3CCOCC3)c2)cnn1-c1ccc(F)cc1 [compound 3, 5-Amino-1-(4-fluorophenyl)-4-[3-{3-(morpholin-4-yl)prop-1-ynyl}benzoyl]pyrazole]
IC50 (p38 MAP kinase): 1.78 µM

Nc1c(C(=O)c2cccc(CCCN3CCOCC3)c2)cnn1-c1ccc(F)cc1 [compound 6, 5-Amino-1-(4-fluorophenyl)-4-[3-(3-morpholin-4-ylpropyl)benzoyl]pyrazole hydrochloride]
IC50 (p38 MAP kinase): 1.74 µM

Nc1c(C(=O)c2cccc(C#CCN3CCCCC3)c2)cnn1-c1ccc(F)cc1 [compound 9, 5-amino-1-(4-fluorophenyl)-4-[3-{3-(piperidin-1-yl)prop-1-ynyl}benzoyl]pyrazole.HCl]
IC50 (p38 MAP kinase): 1.32 µM

Nc1c(C(=O)c2cccc(OCCN3CCOCC3)c2)cnn1-c1ccc(F)cc1 [compound 14, 5-Amino-1-(4-fluorophenyl)-4-[3-{2-(morpholin-4-yl)ethoxy}benzoyl]pyrazole hydrochloride]
IC50 (p38 MAP kinase): 1.27 µM

Nc1c(C(=O)c2cccc(OCC(=O)N3CCOCC3)c2)cnn1-c1ccc(F)cc1 [compound 35, 5-amino-1-(4-fluorophenyl)-4-[3-(morpholin-4-ylcarbonylmethyloxy)benzoyl]pyrazole]
melting point: 124.3 to 126.6 °C

Nc1c(C(=O)c2cccc(CCS(N)(=O)=O)c2)cnn1-c1ccc(F)cc1 [compound 50, 5-Amino4-[3-(2-aminosulfonylethyl)benzoyl]-1-(4-fluorophenyl)pyrazole]
IC50 (p38 MAP kinase): 1.25 µM

Nc1c(C(=O)c2cccc(OCc3ccccn3)c2)cnn1-c1ccc(F)cc1 [compound 82, 5-amino-1-(4-fluorophenyl)-4-[3-(pyridin-2-ylmethoxy)benzoyl]pyrazole]
melting point: 176.1 to 177.3 °C

Nc1c(C(=O)c2cccc(CN3CCCCC3)c2)cnn1-c1ccc(F)cc1F [compound 86, 5-Amino-1-(2,4-difluorophenyl)-4-[3-(1-piperidinylmethyl)benzoyl]pyrazole]
melting point: 116.6 to 118.6 °C

CC(C)(O)C#Cc1cccc(C(=O)c2cnn(-c3ccc(F)cc3)c2N)c1 [compound 87, 5-amino-1-(4-fluorophenyl)-4-[3-(3-hydroxy-3-methyl-but-1-ynyl)benzoyl]pyrazole]
melting point: 152.6 to 153.1 °C

Nc1c(C(=O)c2cccc(C#Cc3cccnc3)c2)cnn1-c1ccc(F)cc1F [compound 88, 5-amino-1-(2,4-difluorophenyl)-4-[3-(3-pyridylethynyl)benzoyl]pyrazole]
melting point: 183.5 to 184 °C

Nc1c(C(=O)c2cccc(CCc3cccnc3)c2)cnn1-c1ccc(F)cc1F [compound 91, 5-amino-1-(2,4-difluorophenyl)-4-[3-(3-pyridylethyl)benzoyl]pyrazole]
melting point: 153.4 to 153.7 °C

Nc1c(C(=O)c2cccc(CCCN3CCS(=O)(=O)CC3)c2)cnn1-c1ccc(F)cc1F [compound 92, 5-amino-1-(2,4-difluorophenyl)-4-[3-{3-(S,S-dioxo-thiomorpholin-4-yl)propyl}benzoyl]pyrazole]
melting point: 123.8 to 125.9 °C

Nc1c(C(=O)c2cccc(C#CC3(O)CCCC3)c2)cnn1-c1ccc(F)cc1F [compound 94, 5-amino-1-(2,4-difluorophenyl)-4-[3-{2-(1-hydroxycyclopentyl)ethynyl}benzoyl]pyrazole]
melting point: 176.8 to 177.1 °C

Nc1c(C(=O)c2cccc(CCC3(O)CCCC3)c2)cnn1-c1ccc(F)cc1F [compound 95, 5-amino-1-(2,4-difluorophenyl)-4-[3-{2-(1-hydroxycyclopentyl)ethyl}benzoyl]pyrazole]
melting point: 120.3 to 121 °C

Nc1c(C(=O)c2cccc(OCCN3CCOCC3)c2)cnn1-c1ccccc1F [compound 97, 5-amino-1-(2-fluorophenyl)-4-[3-(2-morpholin-4-ylethoxy)benzoyl]pyrazole]
melting point: 130.8 to 135.1 °C

Nc1c(C(=O)c2cccc(OCCN3CCOCC3)c2)cnn1-c1c(Cl)cccc1Cl [compound 98, 5-amino-1-(2,6-dichlorophenyl)-4-[3-(2-morpholin-4-ylethoxy)benzoyl]pyrazole]
melting point: 144.2 to 145.1 °C

Nc1c(C(=O)c2cccc(C(O)CO)c2)cnn1-c1ccc(F)cc1F (centres unmarked) [compound 103, 5-amino-1-(2,4-difluorophenyl)-4-[3-(1,2-dihydroxyethyl)benzoyl]pyrazole]
melting point: 59 to 64 °C

Cc1ccccc1-n1ncc(C(=O)c2cccc(C(O)CO)c2)c1N (centres unmarked) [compound 109, 5-amino-1-(2-methylphenyl)-4-[3-(1,2-dihydroxyethyl)benzoyl]pyrazole]
melting point: 83 to 85.5 °C

Nc1c(C(=O)c2cccc(OCC(=O)O)c2)cnn1-c1ccc(F)cc1 [compound 119]
melting point: 215.9 to 216.2 °C

Nc1c(C(=O)c2cccc(OCCn3ncccc3=O)c2)cnn1-c1ccc(F)cc1 [compound 128]
melting point: 174.5 to 178 °C

Nc1c(C(=O)c2cccc(CN3CCOCC3)c2)cnn1-c1ccc(F)cc1F [compound 131]
melting point: 127.3 to 128.5 °C

Nc1c(C(=O)c2cccc(CN3CCC(O)CC3)c2)cnn1-c1ccc(F)cc1F [compound 133]
melting point: 141.5 to 145.5 °C

Nc1c(C(=O)c2cccc(OC[C@@H]3COC(=O)O3)c2)cnn1-c1ccc(F)cc1 [compound 171, 5-amino-1-(4-fluorophenyl)-4-{3-[(1,3-dioxolan-2-on-4(R)-yl)methoxy]benzoyl}pyrazole]
melting point: 144.3 to 144.9 °C

CCC1(CC)OC[C@H](COc2cccc(C(=O)c3cnn(-c4ccc(F)cc4)c3N)c2)O1 [compound 173, 5-amino-1-(4-fluorophenyl)-4-{3-[(2,2-diethyl-1,3-dioxolan-4(S)-yl)methoxy]benzoyl}pyrazole]
melting point: 74.1 to 75.7 °C

CCC1(C)OC[C@H](COc2cccc(C(=O)c3cnn(-c4ccc(F)cc4)c3N)c2)O1 (stereo partly drawn) [compound 174, 5-amino-1-(4-fluorophenyl)-4-{3-[(2-methyl-2-ethyl-1,3-dioxolan-4(S)-yl)methoxy]benzoyl}pyrazole]
melting point: 81.1 to 83 °C
